Laboratory results published in patent US20110178134A1, “Novel phenyl-substituted imidazolidines, process for preparation thereof, medicaments comprising said compounds and use thereof” (SANOFI-AVENTIS, priority 2008, published 2011).
Like-named read-outs stand apart in the source and are kept apart here.

Tests used:
[1] = biological target: T1, human androgen receptor (hAR) (Homo sapiens, UniProt P10275, T878A); test: Binding assay with human androgen receptor, [3H]methyltrienolone, LNCaP cytosol; details: for inhibition at 10 µM / inhibition at 1 µM: inhibition of [3H]methyltrienolone binding; for inhibition at 10 µM: compound 10 μM; for inhibition at 1 µM: compound 1 μM
T1 construct: for the preparation of cytosolic receptor protein, the androgen-sensitive human prostate adenocarcinoma cell line LNCaP was used; endogenous in cells; host or cells: LNCaP (human prostate adenocarcinoma) cell cytosol fraction
T1 sequence (P10275 1-920 T878A): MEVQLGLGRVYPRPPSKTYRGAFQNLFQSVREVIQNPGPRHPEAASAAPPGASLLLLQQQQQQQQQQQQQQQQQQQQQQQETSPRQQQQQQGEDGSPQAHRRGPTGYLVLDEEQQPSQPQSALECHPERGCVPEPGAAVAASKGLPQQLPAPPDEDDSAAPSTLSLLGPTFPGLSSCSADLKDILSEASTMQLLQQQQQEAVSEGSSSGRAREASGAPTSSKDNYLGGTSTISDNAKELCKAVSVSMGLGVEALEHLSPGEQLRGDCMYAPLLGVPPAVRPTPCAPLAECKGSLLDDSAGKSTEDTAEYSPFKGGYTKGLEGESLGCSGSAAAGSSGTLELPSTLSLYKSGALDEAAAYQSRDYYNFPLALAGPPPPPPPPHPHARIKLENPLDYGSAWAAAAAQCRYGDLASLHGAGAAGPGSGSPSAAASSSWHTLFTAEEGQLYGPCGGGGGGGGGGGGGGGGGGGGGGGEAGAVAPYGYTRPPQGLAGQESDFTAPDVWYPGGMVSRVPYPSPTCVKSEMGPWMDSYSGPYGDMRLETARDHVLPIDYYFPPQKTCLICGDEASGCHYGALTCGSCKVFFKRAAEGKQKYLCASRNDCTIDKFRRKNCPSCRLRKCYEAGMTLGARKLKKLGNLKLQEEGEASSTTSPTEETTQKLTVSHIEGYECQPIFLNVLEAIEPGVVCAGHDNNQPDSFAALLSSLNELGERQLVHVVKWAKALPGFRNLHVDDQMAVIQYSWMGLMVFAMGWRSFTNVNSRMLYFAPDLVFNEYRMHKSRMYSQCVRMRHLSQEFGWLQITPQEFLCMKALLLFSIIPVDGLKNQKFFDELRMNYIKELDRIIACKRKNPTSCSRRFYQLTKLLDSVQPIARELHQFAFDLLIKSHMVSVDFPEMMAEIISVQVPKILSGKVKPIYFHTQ
Method: Binding Assay with Human Androgen Receptor:
The binding assays on the androgen receptor were conducted according to the method of D. T. Zava et al. (1979) (“Androgen Receptor Assay with [^3H]Methyltrienolone (R1881) in the Presence of Progesterone Receptor”, Endocrinology, 104, 1007-1012). The radioactive ligand used for the binding measurement was [^3H]methyltrienolone and the reference substance was the same compound in unmarked (=nonradioactive) form. To determine the unspecific proportion of binding, 1 μM mibolerone was used. In a departure from the method cited, for the preparation of cytosolic receptor protein, the androgen-sensitive human prostate adenocarcinoma cell line LNCaP was used. For the analysis, aliquots of a cell cytosol fraction (proceeding from 10^6 cells per analysis point) were incubated, in a buffer in the presence or absence of test substance, with 0.5 nM [^3H]methyltrienolone at 4° C. for 24 hours (25 mM HEPES/Tris, 1 mM EDTA, 10 mM Na2MoO4, 2 mM DTT, 10% glycerol; pH 7.4). The samples were then mixed with 400 μl each of an activated carbon suspension and the mixtures were centrifuged (10 minutes, 8000×g). Supernatants were withdrawn and mixed with 5 ml each of scintillation cocktail, and the radioactivity of the samples was measured in a scintillation counter. Specific ligand binding to the receptors was calculated as the difference between total binding and the unspecific binding in the presence of an excess of nonmarked ligand. End results were represented as percent specific binding compared to the binding of control substance.
The strength of the binding to the human androgen receptor is expressed as percent inhibition of the binding of [^3H]methyltrienolone to the human androgen receptor. The concentration of the compounds examined is 1 μM or 10 μM. The greater the numerical value of “percent inhibition at 1 or 10 μM”, the stronger is the binding of the test substance to the human androgen receptor. Alternatively, the Ki value is reported; the greater this value compared to the Ki value based on the binding to the hCB1R, the lower is the binding to the hAR.

[2] = biological target: human cannabinoid receptor 1 (hCB1R) (Homo sapiens, UniProt P21554); test: Binding to human cannabinoid receptor 1 (hCB1R), [3H]-SR141716A displacement
Method: Binding to Human Cannabinoid Receptor 1 (hCB1R):
Test compounds: The compounds (3 μl, 10 mM, 100% DMSO), pipetted into 96-well PP microtiter plates, were diluted with 27 μl of 100% DMSO (dimethyl sulfoxide). Proceeding from this solution, further 3-fold dilution steps were undertaken by transferring […] in each case to a new PP microtiter plate and adding a further 20 μl of 100% DMSO. In each case 6 μl of these solutions were transferred into new 96-well PP microtiter plates and made up with 144 μl of assay buffer. The end concentrations ranged from 10 μM to 0.005 μM.
Negative control: AM 251, dissolved in assay buffer with 1% DMSO, was added to the dilution series in the microtiter plates as a control. The end concentration was 1 μM.
Blank control: assay buffer with 1% DMSO was added to the dilution series of the microtiter plates as a blank control.
Summary of the Assay Parameters:
High control: ^3H binding without addition of the compound
Low control: ^3H binding in the presence of 1 μM AM 251
The values were calculated using the corrected raw data.
The values reported were obtained as average values of a double determination. The IC50 values were calculated from the measurements with the program Xlfit, formula 205. Ki values were obtained from the IC50 and Kd values utilizing the Cheng-Prusoff equation: […]
Literature: Cheng, Y.-C., and Prusoff, W. H. (1973) Biochem. Pharmacol 22, 3099-3108

[3] = CHO-K1/cannabinoid CB1 protein, 0.5 nM [3H]-SR141716A, Cheng-Prusoff, read-out: hCB1R, binding Ki

human cannabinoid receptor 1 (hCB1R), sequence (P21554 whole entry): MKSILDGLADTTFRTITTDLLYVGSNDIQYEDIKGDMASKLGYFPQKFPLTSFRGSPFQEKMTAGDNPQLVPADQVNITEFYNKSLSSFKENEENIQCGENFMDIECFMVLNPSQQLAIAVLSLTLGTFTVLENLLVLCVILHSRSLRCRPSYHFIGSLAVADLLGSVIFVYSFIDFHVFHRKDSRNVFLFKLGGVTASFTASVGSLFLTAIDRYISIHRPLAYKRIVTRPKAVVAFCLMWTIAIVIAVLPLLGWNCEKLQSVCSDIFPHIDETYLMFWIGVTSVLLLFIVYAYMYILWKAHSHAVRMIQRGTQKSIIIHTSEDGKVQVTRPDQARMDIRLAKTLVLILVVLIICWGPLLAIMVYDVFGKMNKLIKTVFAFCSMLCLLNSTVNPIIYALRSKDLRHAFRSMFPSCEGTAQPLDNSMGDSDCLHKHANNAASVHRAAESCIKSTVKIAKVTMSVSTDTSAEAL

Compound	Ki [2, 3] [nM]	inhibition at 1 µM [1] [%]	Ki [2] [nM]	also measured
CC1(C)C(=O)N(c2ccc(F)c(C(F)(F)F)c2)C(=O)N1Cc1cc(C(F)(F)F)cc(C(F)(F)F)c1 [Example 9, 1-(3,5-bis(trifluoromethyl)benzyl)-3-(4-fluoro-3-trifluoromethylphenyl)-5,5-dimethylimidazolidine-2,4-dione]	295			inhibition at 10 µM [1]: 3%
CC1(C)C(=O)N(c2ccc(Cl)c(C(F)(F)F)c2)C(=O)N1Cc1ccc(C(F)(F)F)nc1 [Example 8, 3-(4-chloro-3-trifluoromethylphenyl)-5,5-dimethyl-1-(6-trifluoromethyl-pyridin-3-ylmethyl)imidazolidine-2,4-dione]	227	53		
CC1(C)C(=O)N(c2ccc(C#N)c(C(F)(F)F)c2)C(=O)N1Cc1ccc(C(F)(F)F)nc1 [Example 6, 4-[4,4-dimethyl-2,5-dioxo-3-(6-trifluoromethylpyridin-3-ylmethyl)-imidazolidin-1-yl]-2-trifluoromethylbenzonitrile]		84	11	
CC1(C)C(=O)N(c2ccc(C#N)c(C(F)(F)F)c2)C(=O)N1Cc1cccc(C(F)(F)F)c1 [Example 3, 4-[4,4-dimethyl-2,5-dioxo-3-(3-trifluoromethylbenzyl)imidazolidin-1-yl]-2-trifluoromethylbenzonitrile]	127	54		
CC1(C)C(=O)N(c2ccc(C#N)c(C(F)(F)F)c2)C(=O)N1Cc1ccc(Cl)nc1 [Example 5, 4-[3-(6-chloropyridin-3-ylmethyl)-4,4-dimethyl-2,5-dioxoimidazolidin-1-yl]-2-trifluoromethylbenzonitrile]		86	25	
CC1(C)C(=O)N(c2ccc(F)c(C(F)(F)F)c2)C(=O)N1Cc1ccc(F)cc1NS(N)(=O)=O [Example 52, N-{5-fluoro-2-[3-(4-fluoro-3-trifluoromethylphenyl)-5,5-dimethyl-2,4-dioxoimidazolidin-1-ylmethyl]phenyl}sulfamide]		52	41	
CC1(C)C(=O)N(c2ccc(C#N)c(C(F)(F)F)c2)C(=O)N1Cc1ccc(OCc2ccccc2)c(OCc2ccccc2)c1 [Example 33, 4-[3-(3,4-bis(benzyloxy)benzyl)-4,4-dimethyl-2,5-dioxoimidazolidin-1-yl]-2-trifluoromethylbenzonitrile]			26	Ki ([1]; reported instead of % inhibition in table 5, read-out: hAR, Ki): > 1000 nM
CC1(C)C(=O)N(c2ccc(C#N)c(C(F)(F)F)c2)C(=O)N1Cc1ccc(OC(F)(F)F)cc1 [Example 2, 4-[4,4-dimethyl-2,5-dioxo-3-(4-trifluoromethoxybenzyl)imidazolidin-1-yl]-2-trifluoromethylbenzonitrile]	200	20		
CC1(C)C(=O)N(c2ccc(C#N)c(C(F)(F)F)c2)C(=O)N1Cc1ccc(C(F)(F)F)cc1 [4-[4,4-dimethyl-2,5-dioxo-3-(4-trifluoromethylbenzyl)-imidazolidin-1-yl]-2-trifluoromethylbenzonitrile, reference compound]			76	Ki ([1]; read-out: Ki value based on binding to the human androgen receptor): 96 nM
CC1(C)C(=O)N(c2ccc(F)c(C(F)(F)F)c2)C(=O)N1Cc1ccccc1Oc1ccccc1 [Example 44, 3-(4-fluoro-3-trifluoromethylphenyl)-5,5-dimethyl-1-(2-phenoxybenzyl)imidazolidine-2,4-dione]	100			inhibition at 10 µM [1]: 15%
CC1(C)C(=O)N(c2ccc(C#N)c(C(F)(F)F)c2)C(=O)N1Cc1cccc(S(F)(F)(F)(F)F)c1 [Example 11, 4-[4,4-dimethyl-2,5-dioxo-3-(3-pentafluorosulfanylbenzyl)imidazolidin-1-yl]-2-trifluoromethylbenzonitrile]		39	17	
CC1(C)C(=O)N(c2ccc(Cl)c(C(F)(F)F)c2)C(=O)N1Cc1ccc(OCc2ccccc2)c(OCc2ccccc2)c1 [Example 37]	219			inhibition at 10 µM [1]: 4%
CC1(C)C(=O)N(c2ccc(C#N)c(C(F)(F)F)c2)C(=O)N1Cc1ccccc1Oc1ccccc1 [Example 34, 4-[4,4-dimethyl-2,5-dioxo-3-(2-phenoxybenzyl)imidazolidin-1-yl]-2-trifluoromethylbenzonitrile]		30	6	
CC1(C)C(=O)N(c2ccc(F)c(C(F)(F)F)c2)C(=O)N1Cc1ccc(C(F)(F)F)nc1 [Example 7, 3-(4-fluoro-3-trifluoromethylphenyl)-5,5-dimethyl-1-(6-trifluoromethyl-pyridin-3-ylmethyl)imidazolidine-2,4-dione]	205	47		
CC1(C)C(=O)N(c2ccc(C#N)c(C(F)(F)F)c2)C(=O)N1Cc1cc(C(F)(F)F)cc(C(F)(F)F)c1 [Example 1, 4-[3-(3,5-bis(trifluoromethyl)benzyl)-4,4-dimethyl-2,5-dioxoimidazolidin-1-yl]-2-trifluoromethylbenzonitrile]			4	inhibition at 10 µM [1]: 26%
CC1(C)C(=O)N(c2ccc(Cl)c(C(F)(F)F)c2)C(=O)N1Cc1cc(C(F)(F)F)cc(C(F)(F)F)c1 [Example 10, 1-(3,5-bis(trifluoromethyl)benzyl)-3-(4-chloro-3-trifluoromethylphenyl)-5,5-dimethylimidazolidine-2,4-dione]		3	81	
